{"source": "paper PMC8704606", "about": "“The Artemiside-Artemisox-Artemisone-M1 Tetrad: Efficacies against Blood Stage P. falciparum Parasites, DMPK Properties, and the Case for Artemiside” (Pharmaceutics, 2021)", "key": {"[1]": {"assay": "Cytotoxicity (LDH assay) against HepG2 cells", "assay_type": "cell-based", "conditions": "human, HepG2 cells (hepatocellular carcinoma)", "method": "Cytotoxicity against mammalian hepatocellular carcinoma cells (HepG2 cells) was determined using the lactate dehydrogenase assay (LDH, Biovision Inc., Milpitas, CA, USA). […] Compound working solutions were prepared from 10 mM stock solutions (100% DMSO) in complete DMEM to a final DMSO (Sigma-Aldrich) conc. of <0.1% (vol/vol). […] Data analysis was performed using GraphPad Prism (version 6) software."}, "[2]": {"tested_on": "late-stage (LG) Pf NF54 gametocytes", "assay": "Luciferase assay, late-stage gametocytes", "assay_type": "cell-based, Plasmodium falciparum", "conditions": "late-stage vs early-stage gametocytes, p < 0.05", "method": "For screening artemisox and M1 against early- (EG) and late-stage (LG) gametocytes, the luciferase assay with transgenic NF54-pfs16-GFP-Luc and NF54-Mal8p1.16-GFP-Luc parasite lines was used. With this assay, stage-specificity of gametocytocidal action was established (Table 2). Dose-response curves are in Figures S1d,e and S2d in the Supplementary Material 1. […] As was observed previously for artemisone and artemiside, dose responses for artemisox and M1 could not be obtained at 48 h against late-stage gametocytes.\nThe same reference compounds with the exception of CQ were used for the early- and late-stage gametocyte assays. Gametocytocidal activity was determined using the transgenic NF54-pfs16-GFP-Luc and NF54-Mal8p1.16-GFP-Luc reporter lines. Compounds were initially screened for activity at a fixed drug concentration of 1 µM, with dose responses subsequently determined using 2-fold serial drug dilutions for 48 h against early-stage gametocytes (day 5 post-induction population, ≥95% stages II–III) and 10-fold serial drug dilutions for 48 h or 72 h against late-stage gametocytes (day 10 post-induction population, ≥90% late-stage [stages IV–V]) (2 to 3% gametocytemia, 2% hematocrit) at 37 °C under 90% N2, 5% CO2, and 5% O2 [6]. No drug washout steps were performed during the drug incubation periods prior to the assays. In all cases, an interference assay was run in parallel to eliminate the possibility of false positives arising through compound interference with the luciferase readout."}, "[3]": {"assay": "Pharmacokinetics and metabolism after iv and po administration", "assay_type": "in vivo", "method": "The plasma concentration-time profiles of the parent compounds and metabolites after administration iv and po to male C57/BL6 mice are presented in Figure 2, Figure 3 and Figure 4. Artemiside was quantifiable up to 24 h in all mice dosed iv and up to 7 h po (lower limit of quantitation LLOQ = 1.6 ng/mL or 0.004 μM) (Figure 2). […] For both artemiside and artemisox, the metabolite artemisone was quantifiable up to 3 h in both the po and iv groups (Figure 2 and Figure 3). Thereby it is confirmed that artemiside is rapidly converted via artemisox into artemisone. Artemisone itself was quantifiable up to three hours post dose (Figure 4). The mean circulating concentrations for the compounds and their metabolites are presented in Table S3a–f in the Supplementary Material 1. The metabolite M1 was also detected upon administration of artemiside, artemisox, and artemisone, but it was not quantified here; chromatograms indicating the presence of M1 are illustrated in Figure S3a–c in the Supplementary Material 1. In addition, the plasma concentration-time curves for artemiside and its metabolites artemisone and M1 following iv and po dosing in the same murine model are presented and discussed in detail elsewhere (cf. Figure 4 in reference).\nAll work was conducted with prior approval of the animal ethics committee of the University of Cape Town in accordance with the South African National Standards for the Care and Use of Animals for Scientific Purposes and guidelines from the South African Department of Health. The requirements and methods for the pharmacokinetics in vivo involving po and iv drug administration, sample extraction, analyses of samples by LC-MS/MS, and data analyses are described elsewhere. For the animal experiments and formulations, the compounds were dissolved in a 10:60:30 mixture of N,N-dimethylacetamide-polypropylene glycol-polyethylene glycol for intravenous dosing (iv) at 5 mg/kg. For the oral dose (po), compounds were individually dosed as a suspension in 0.5% (w/v) hydroxypropylmethylcellulose in water with 0.2% Tween80 at 50 mg/kg to male C57/BL6 mice (n = 3 for each group). For PK sampling, blood samples were collected at predetermined times (0.08, 0.25, 0.5, 1, 3, 5, 7, and 24 h) for both po and iv dosing via tail bleeding into heparinized tubes, centrifuged, and the plasma samples were stored at −80 °C until extraction. For preparation of samples, the frozen plasma samples were thawed and 15 μL was extracted by liquid–liquid extraction using a universal buffer (pH8) containing 10 ng/mL of the internal standard and ethyl acetate, and the extract was vortexed and centrifuged. Calibration standards and quality controls were extracted following the same procedure. Supernatants were dried down, reconstituted, and injected onto the column for LC-MS/MS analysis using an AB SCIEX 5500 QTRAP instrument coupled to an Agilent 1260 HPLC detection system as previously described."}}, "note": "Where two headings read alike, the source gives them in different places."}
{"smiles": "C[C@H]1[C@H](N2CCS(=O)(=O)CC2)O[C@@H]2O[C@@]3(C)CC[C@H]4[C@H](C)CC[C@@H]1[C@@]24OO3", "note": "[Artemisone 7, Artemisone]", "values": [{"measurement": "IC50 at 24 h", "setting": "[1]", "value": "> 50", "unit": "µM"}, {"measurement": "fold decrease in activity against late-stage gametocytes", "setting": "[2]", "value": "> 20", "unit": "fold"}, {"measurement": "Mean iv circulating concentration", "setting": "[3]; 5 h after iv 5 mg/kg artemisone 7", "value": "blq"}, {"measurement": "Mean iv circulating concentration", "setting": "[3]; 5 h after iv 5 mg/kg artemisox 6", "value": "blq"}, {"measurement": "Mean po circulating concentration", "setting": "[3]; 5 h after po 50 mg/kg artemiside 5", "value": "blq"}, {"measurement": "Mean po circulating concentration", "setting": "[3]; 5 h after po 50 mg/kg artemisone 7", "value": "blq"}, {"measurement": "Mean iv circulating concentration", "setting": "[3]; 7 h after iv 5 mg/kg artemiside 5", "value": "blq"}, {"measurement": "Mean iv circulating concentration", "setting": "[3]; 7 h after iv 5 mg/kg artemisone 7", "value": "blq"}, {"measurement": "Mean iv circulating concentration", "setting": "[3]; 7 h after iv 5 mg/kg artemisox 6", "value": "blq"}, {"measurement": "Mean po circulating concentration", "setting": "[3]; 7 h after po 50 mg/kg artemiside 5", "value": "blq"}, {"measurement": "Mean po circulating concentration", "setting": "[3]; 7 h after po 50 mg/kg artemisone 7", "value": "blq"}, {"measurement": "Mean po circulating concentration", "setting": "[3]; 7 h after po 50 mg/kg artemisox 6", "value": "blq"}, {"measurement": "Mean iv circulating concentration", "setting": "[3]; 24 h after iv 5 mg/kg artemiside 5", "value": "blq"}, {"measurement": "Mean iv circulating concentration", "setting": "[3]; 24 h after iv 5 mg/kg artemisone 7", "value": "blq"}, {"measurement": "Mean iv circulating concentration", "setting": "[3]; 24 h after iv 5 mg/kg artemisox 6", "value": "blq"}, {"measurement": "Mean po circulating concentration", "setting": "[3]; 24 h after po 50 mg/kg artemiside 5", "value": "blq"}, {"measurement": "Mean po circulating concentration", "setting": "[3]; 24 h after po 50 mg/kg artemisone 7", "value": "blq"}, {"measurement": "Mean po circulating concentration", "setting": "[3]; 24 h after po 50 mg/kg artemisox 6", "value": "blq"}, {"measurement": "quantifiable up to, post dose", "setting": "[3]; artemisone itself dosed, iv 5 mg/kg and po 50 mg/kg (Figure 4)", "value": "up to three"}, {"measurement": "t½", "setting": "[3]; iv 5 mg/kg, parent drug, mean ± SD, 5 mg/kg", "value": "23.4 ± 4.8", "unit": "min"}, {"measurement": "concentration at 0.08 h", "setting": "[3]; male, C57/BL6, mouse, plasma, iv, 5 mg/kg, 0.08 h after iv 5 mg/kg artemiside 5, read-out: Mean iv circulating concentration", "value": 117, "unit": "nM"}, {"measurement": "concentration at 0.08 h", "setting": "[3]; male, C57/BL6, mouse, plasma, iv, 5 mg/kg, 0.08 h after iv 5 mg/kg artemisone 7, read-out: Mean iv circulating concentration", "value": 3860, "unit": "nM"}, {"measurement": "concentration at 0.08 h", "setting": "[3]; male, C57/BL6, mouse, plasma, iv, 5 mg/kg, 0.08 h after iv 5 mg/kg artemisox 6, read-out: Mean iv circulating concentration", "value": 1110, "unit": "nM"}, {"measurement": "concentration at 0.25 h", "setting": "[3]; male, C57/BL6, mouse, plasma, iv, 5 mg/kg, 0.25 h after iv 5 mg/kg artemiside 5, read-out: Mean iv circulating concentration", "value": 247, "unit": "nM"}, {"measurement": "concentration at 0.25 h", "setting": "[3]; male, C57/BL6, mouse, plasma, iv, 5 mg/kg, 0.25 h after iv 5 mg/kg artemisone 7, read-out: Mean iv circulating concentration", "value": 2510, "unit": "nM"}, {"measurement": "concentration at 0.25 h", "setting": "[3]; male, C57/BL6, mouse, plasma, iv, 5 mg/kg, 0.25 h after iv 5 mg/kg artemisox 6, read-out: Mean iv circulating concentration", "value": 1400, "unit": "nM"}, {"measurement": "concentration at 0.5 h", "setting": "[3]; male, C57/BL6, mouse, plasma, iv, 5 mg/kg, 0.5 h after iv 5 mg/kg artemiside 5, read-out: Mean iv circulating concentration", "value": 270, "unit": "nM"}, {"measurement": "concentration at 0.5 h", "setting": "[3]; male, C57/BL6, mouse, plasma, iv, 5 mg/kg, 0.5 h after iv 5 mg/kg artemisone 7, read-out: Mean iv circulating concentration", "value": 1720, "unit": "nM"}, {"measurement": "concentration at 0.5 h", "setting": "[3]; male, C57/BL6, mouse, plasma, iv, 5 mg/kg, 0.5 h after iv 5 mg/kg artemisox 6, read-out: Mean iv circulating concentration", "value": 1250, "unit": "nM"}, {"measurement": "concentration at 1 h", "setting": "[3]; male, C57/BL6, mouse, plasma, iv, 5 mg/kg, 1 h after iv 5 mg/kg artemiside 5, read-out: Mean iv circulating concentration", "value": 160, "unit": "nM"}, {"measurement": "concentration at 1 h", "setting": "[3]; male, C57/BL6, mouse, plasma, iv, 5 mg/kg, 1 h after iv 5 mg/kg artemisone 7, read-out: Mean iv circulating concentration", "value": 831, "unit": "nM"}, {"measurement": "concentration at 1 h", "setting": "[3]; male, C57/BL6, mouse, plasma, iv, 5 mg/kg, 1 h after iv 5 mg/kg artemisox 6, read-out: Mean iv circulating concentration", "value": 659, "unit": "nM"}, {"measurement": "concentration at 3 h", "setting": "[3]; male, C57/BL6, mouse, plasma, iv, 5 mg/kg, 3 h after iv 5 mg/kg artemiside 5, read-out: Mean iv circulating concentration", "value": 12, "unit": "nM"}]}
